# Measurements published in patent publication US20230339977A1, “SUBSTITUTED HETEROARYL COMPOUND, AND COMPOSITION AND APPLICATION THEREOF” (SUNSHINE LAKE PHARMA CO., LTD., priority 2020, published 2023).
# System: JAK2/TYK2
# Assay: Cell level activity test of JAK2/TYK2 (IL-12 mediated IFNγ expression in NK92 cells)
# Type: cell-based
# Conditions: IFNγ in supernatant by ELISA, NK92 cells with IL-12, 24 h
# Excerpt: TYK2 belongs to the JAK family, and can accept the ligand acting on the coupled receptor signal to regulate downstream signal activator of transcription (STAT) phosphorylation. Phosphorylation of STAT can regulate the expression of downstream related genes, leading to changes in physiological functions such as cell proliferation and differentiation. IL-12 mediates IFNγ expression in NK92 cells through JAK2/TYK2.
# Therefore, by inhibiting TYK2 activity, inhibition of this cascade pathway leads to a decrease in IFNγ expression. However, IL-2 can induce NK92 proliferation and produce IFNγ through receptor-coupled […], so the influence of IL-2 needs to be ruled out. In this experiment, the activity of compounds on JAK2/TYK2 was evaluated by detecting the expression of IFNγ at various compound concentrations.
# The test compound was dissolved in DMSO, prepared into a 20 mM stock solution, and stored at -20° C. for future use. The mother solution was diluted 10 times with DMSO to make a 2 mM solution, then diluted with medium to an initial concentration of […], and then diluted 3-fold with medium containing 5% DMSO to obtain a prepared concentration gradient of […], 33333.3 nM, 11111.1 nM, 3703.70 nM, 1234.57 nM, 411.523 nM, 137.174 nM, 45.7247 nM, 15.2416 nM; 10 ul of the above-mentioned concentration of drugs were added into a 96-well plate to obtain the final concentrations of […], 3333.3 nM, 1111.1 nM, 370.4 nM, 123.5 nM, 41.1 nM, 13.7 nM, 4.6 nM, 1.52 nM;
# NK92 cells were resuscitated and cultured, 16 h before the experiment, the medium was replaced with interleukin-free medium. The mixture was centrifuged and IL-12 medium was added to resuspend the cells, seeded 95 ul in a 96-well plate at a density of 20,000 cells/well, 10 ul of the above gradual dilution was added and incubated for 24 h, centrifuged to take the supernatant, diluted 3-fold with pure water, and the IFNγ concentration of the supernatant was detected by ELISA, the IC50 value was calculated.
row,Compound,IC50 [nM]
1,"CO[C@@H](C)CCOc1cc(-c2cn(C)c3cnc(NC(C)=O)cc23)nc2c1CCOC21CCOC1 (stereo partly drawn) [Example 38, N-(3-(4′-((S)-3-Methoxybutoxy)-4,5,5′,6′-Tetrahydro-2H-Spiro[Furan-3,8′-Pyrano[3,4-b]Pyridin]-2′-yl)-1-Methyl-1H-Pyrrolo[2,3-c]Pyridin-5-yl)Acetamide]",27.7

# Same assay, conditions: NK92, 24 h, IFNγ in supernatant by ELISA, NK92 cells with IL-12, 24 h
row,Compound,IC50 [nM]
1,"COC(C)CCOc1cc(-c2cn(C)c3cnc(NC(C)=O)cc23)nc2c1CCOC21CCOC1 (stereo in doubt) [Example 43, N-(3-(4′-((R)-3-Methoxybutoxy)-4,5,5′,6′-Tetrahydro-2H-Spiro[Furan-3,8′-Pyrano[3,4-b]Pyridin]-2′-yl)-1-Methyl-1H-Pyrrolo[2,3-c]Pyridin-5-yl)Acetamide]",26.4
2,"COCC(C)(C)COc1cc(-c2cn(C)c3cnc(NC(C)=O)cc23)nc2c1CCOC21CCOC1 (centres unmarked) [Example 30, N-(3-(4′-(3-Methoxy-2,2-Dimethylpropoxy)-4,5,5′,6′-Tetrahydro-2H-Spiro[Furan-3,8′-Pyrano[3,4-b]Pyridin]-2′-yl)-1-Methyl-1H-Pyrrolo[2,3-c]Pyridin-5-yl)Acetamide]",102
3,"COCCOCCCOc1cc(-c2cn(C)c3cnc(NC(C)=O)cc23)nc2c1CCOC21CCOC1 (centres unmarked) [Example 32, N-(3-(4′-(3-(2-Methoxyethoxy)Propoxy)-4,5,5′,6′-Tetrahydro-2H-Spiro[Furan-3,8′-Pyrano[3,4-b]Pyridin]-2′-yl)-1-Methyl-1H-Pyrrolo[2,3-c]Pyridin-5-yl)Acetamide]",30.6
4,"CC(=O)Nc1cc2c(-c3cc(OCCCOC(F)F)c4c(n3)C3(CCOC3)OCC4)cn(C)c2cn1 (centres unmarked) [Example 33, N-(3-(4′-(3-(Difluoromethoxy)Propoxy)-4,5,5′,6′-Tetrahydro-2H-Spiro[Furan-3,8′-Pyrano[3,4-b]Pyridin]-2′-yl)-1-Methyl-1H-Pyrrolo[2,3-c]Pyridin-5-yl)Acetamide]",38.6
5,"CC(=O)Nc1cc2c(-c3cc(OCCCO)c4c(n3)C3(CCOC3)OCC4)cn(C)c2cn1 (centres unmarked) [Example 34, N-(3-(4′-(3-Hydroxypropoxy)-4,5,5′,6′-Tetrahydro-2H-Spiro[Furan-3,8′-Pyrano[3,4-b]Pyridin]-2′-yl)-1-Methyl-1H-Pyrrolo[2,3-c]Pyridin-5-yl)Acetamide]",34.3
6,"CC(=O)Nc1cc2c(-c3cc(OCC(C)(C)CO)c4c(n3)C3(CCOC3)OCC4)cn(C)c2cn1 (centres unmarked) [Example 35, N-(3-(4′-(3-Hydroxy-2,2-Dimethylpropoxy)-4,5,5′,6′-Tetrahydro-2H-Spiro[Furan-3,8′-Pyrano[3,4-b]Pyridin]-2′-yl)-1-Methyl-1H-Pyrrolo[2,3-c]Pyridin-5-yl)Acetamide]",20.4
7,"COCCOCc1cc(-c2cn(C)c3cnc(NC(C)=O)cc23)nc2c1CCOC21CCOC1 (centres unmarked) [Example 36, N-(3-(4′-((2-Methoxyethoxy)Methyl)-4,5,5′,6′-Tetrahydro-2H-Spiro[Furan-3,8 ‘-Pyrano[3,4-b]Pyridin]-2′-yl)-1methyl-1H-Pyrrolo[2,3-c]Pyridin-5-yl)Acetamide]",52.9
8,"CC(=O)Nc1cc2c(-c3cc(OCC[C@@H](C)O)c4c(n3)C3(CCOC3)OCC4)cn(C)c2cn1 (stereo partly drawn) [Example 37, N-(3-(4′-((R)-3-Hydroxybutoxy)-4,5,5′,6′-Tetrahydro-2H-Spiro[Furan-3,8′-Pyrano[3,4-b]Pyridin]-2′-yl)-1-Methyl-1H-Pyrrolo[2,3-c]Pyridin-5-yl)Acetamide]",20
9,"CC(=O)Nc1cc2c(-c3cc(OCC[C@H](C)O)c4c(n3)C3(CCOC3)OCC4)cn(C)c2cn1 (stereo partly drawn) [Example 39, N-(3-(4′-((S)-3-Hydroxybutoxy)-4,5,5′,6′-Tetrahydro-2H-Spiro[Furan-3,8′-Pyrano[3,4-b]Pyridin]-2′-yl)-1-Methyl-1H-Pyrrolo[2,3-c]Pyridin-5-yl)Acetamide]",11
10,"CC(=O)Nc1cc2c(-c3cc(OCCC(C)(C)C#N)c4c(n3)C3(CCOC3)OCC4)cn(C)c2cn1 (centres unmarked) [Example 40, N-(3-(4′-(3-Cyano-3-Methylbutoxy)-4,5,5′,6′-Tetrahydro-2H-Spiro[Furan-3,8′-Pyrano[3,4-b]Pyridin]-2′-yl)-1-Methyl-1H-Pyrrolo[2,3-c]Pyridin-5-yl)Acetamide]",152
